Columns and labels:
yellow foxtail (SETLU) = experiment: Test 5 field trial, postemergence; assay type: in vivo, Setaria glauca
Text: (§1) Corn seeds (hybrid ‘Pioneer 38H69’) were planted in mid spring season, 5.1 cm deep in a silty clay loam soil having 3% organic matter and a pH of 6.5. Plots were 9.1 m long by 3.0 m wide with rows spaced 76 cm apart. The field was managed using conventional tillage practices. […] All treatments included a surfactant except glufosinate treatments, both alone and in combination. […] Results are summarized in Table 5 and are the means of the three replicates.

[1] = system: common lambsquarters (CHEAL); experiment: Test 8 field trial, preemergence; assay type: in vivo, Chenopodium album
Text: (§2) Corn seeds (hybrid ‘Pioneer 31G96’) were planted in mid spring season, 3.8 cm deep in a clay loam soil having 2% organic matter and a pH of 6.6. Plots were 6.1 m long by 3.0 m wide with rows spaced 76 cm apart. Seeds were spaced 15 cm apart within the rows. The field was managed using conventional tillage practices. […] A few of the weed species could not be evaluated at every timing. […] Results are the means of the three replicates.

[2] = system: Pennsylvania smartweed (POLPY); experiment: Test 6 field trial, postemergence; assay type: in vivo, Polygonum pensylvanicum
Text: (§3) Corn seeds (hybrid ‘Pioneer 35Y62’) were planted in mid spring season, 3.8 cm deep in a silt loam soil having 4% organic matter and a pH of 5.8. Plots were 10.7 m long by 1.5 m wide with rows spaced 76 cm apart. Seeds were spaced 18 cm apart within the rows. The field was managed using conventional tillage practices. […] All treatments included a surfactant except glufosinate treatments, both alone and in combination. […] Results are summarized in Table 6 and are the means of the three replicates.

redroot pigweed (AMARE) = experiment: Test 6 field trial, postemergence; assay type: in vivo, Amaranthus retroflexus
Text: as §3

southern sandbur (CCHEC) = experiment: Test 11 field trial, preemergence; assay type: in vivo, Cenchrus echinatus; set-up: scale not given here; conditions: alone or + atrazine 1500 or metolachlor 2500
Text: Corn seeds (hybrid ‘Pioneer 3041’) were planted in mid spring season, 5 cm deep in a clay soil having 2.6% organic matter and a pH of 5.6. Plots were 8 m long by 1.5 m wide with rows spaced 80 cm apart. Seeds were spaced 15 cm apart within the rows. The field was managed using conventional tillage practices. […] Treatments consisted of Compound 2 or
Goosegrass was not evaluated 16 or 91 days after application.

jimsonweed (DATST) = experiment: Test 8 field trial, preemergence; assay type: in vivo, Datura stramonium
Text: as §2

giant foxtail (SETFA) = experiment: Test 10 field trial, preemergence; assay type: in vivo, Setaria faberi; conditions: 28 DAA
Text: (§4) Corn seeds (hybrid ‘Pioneer 33P65 RR’) were planted in mid spring season, 2.5 cm deep in a silt loam soil. Plots were 9.1 m long by 3.0 m wide with rows spaced 76 cm apart. The field was managed using conventional tillage practices. […] Results are the means of the three replicates.

velvetleaf (ABUTH) = experiment: Test 5 field trial, postemergence; assay type: in vivo, Abutilon theophrasti
Text: as §1

[3] = system: ivyleaf morningglory (IPOHE); experiment: Test 10 field trial, preemergence; assay type: in vivo, Ipomoea hederacea; conditions: 28 DAA
Text: as §4

[4] = 16 DAA, Cpd 2 30 g a.i./ha alone or with glufosinate 470 or glyphosate 1120
[5] = 16 DAA, Cpd 2 60 g a.i./ha alone or with atrazine 1120, glufosinate 470 or glyphosate 1120
[6] = 31 DAA, Cpd 2 30 g a.i./ha alone or with glufosinate 470 or glyphosate 1120
[7] = 31 DAA, Cpd 2 60 g a.i./ha alone or with atrazine 1120, glufosinate 470 or glyphosate 1120
[8] = 19 DAA, g a.i./ha: Cpd 2 50, S-Metolachlor 1870
[9] = 19 DAA, g a.i./ha: Cpd 2 100, Atrazine 1680, S-Metolachlor 1870
[10] = 19 DAA, g a.i./ha: Cpd 2 150, S-Metolachlor 1870
[11] = 56 DAA, g a.i./ha: Cpd 2 50, S-Metolachlor 1870
[12] = 56 DAA, g a.i./ha: Cpd 2 100, Atrazine 1680, S-Metolachlor 1870
[13] = 56 DAA, g a.i./ha: Cpd 2 150, S-Metolachlor 1870
[14] = g a.i./ha: Cpd 2 50, S-Metolachlor 1870
[15] = g a.i./ha: Cpd 2 100, Atrazine 1680, S-Metolachlor 1870
[16] = g a.i./ha: Cpd 2 150, S-Metolachlor 1870

COC(=O)c1nc(C2CC2)nc(N)c1Cl [Compound 2, methyl 6-amino-5-chloro-2-cyclopropyl-4-pyrimidinecarboxylate]
SETLU Obs (yellow foxtail (SETLU); [4]): 2% | SETLU Obs (yellow foxtail (SETLU); [5]): 0% | SETLU Obs (yellow foxtail (SETLU); [6]): 0% | SETLU Obs (yellow foxtail (SETLU); [7]): 2% | CHEAL Obs [1, 8]: 75% | CHEAL Obs [1, 9]: 100% | CHEAL Obs [1, 10]: 100% | CHEAL Obs [1, 11]: 68% | CHEAL Obs [1, 12]: 100% | CHEAL Obs [1, 13]: 100% | POLPY Obs ([2]; 14 DAA, 30 g a.i./ha): 20% | POLPY Obs ([2]; 14 DAA, 60 g a.i./ha): 40% | POLPY Obs ([2]; 28 DAA, 30 g a.i./ha): 20% | POLPY Obs ([2]; 28 DAA, 60 g a.i./ha): 40% | AMARE Obs (redroot pigweed (AMARE); 14 DAA, 30 g a.i./ha): 100% | AMARE Obs (redroot pigweed (AMARE); 14 DAA, 60 g a.i./ha): 98% | AMARE Obs (redroot pigweed (AMARE); 28 DAA, 30 g a.i./ha): 100% | AMARE Obs (redroot pigweed (AMARE); 28 DAA, 60 g a.i./ha): 98% | CCHEC Obs (southern sandbur (CCHEC); 16 DAA, Cpd 2/Cpd 1 at 62 g a.i./ha): 0 | CCHEC Obs (southern sandbur (CCHEC); 16 DAA, Cpd 2/Cpd 1 at 125 g a.i./ha): 40 | CCHEC Obs (southern sandbur (CCHEC); 30 DAA, Cpd 2/Cpd 1 at 62 g a.i./ha): 0 | CCHEC Obs (southern sandbur (CCHEC); 30 DAA, Cpd 2/Cpd 1 at 125 g a.i./ha): 40 | CCHEC Obs (southern sandbur (CCHEC); 44 DAA, Cpd 2/Cpd 1 at 62 g a.i./ha): 0 | CCHEC Obs (southern sandbur (CCHEC); 44 DAA, Cpd 2/Cpd 1 at 125 g a.i./ha): 0 | CCHEC Obs (southern sandbur (CCHEC); 62 DAA, Cpd 2/Cpd 1 at 62 g a.i./ha): 0 | CCHEC Obs (southern sandbur (CCHEC); 62 DAA, Cpd 2/Cpd 1 at 125 g a.i./ha): 0 | CCHEC Obs (southern sandbur (CCHEC); 91 DAA, Cpd 2/Cpd 1 at 62 g a.i./ha): 0 | CCHEC Obs (southern sandbur (CCHEC); 91 DAA, Cpd 2/Cpd 1 at 125 g a.i./ha): 0 | DATST Obs (jimsonweed (DATST); [8]): 33% | DATST Obs (jimsonweed (DATST); [9]): 52% | DATST Obs (jimsonweed (DATST); [10]): 65% | DATST Obs (jimsonweed (DATST); 29 DAA, g a.i./ha: Cpd 2 50, S-Metolachlor 1870): 45% | DATST Obs (jimsonweed (DATST); 29 DAA, g a.i./ha: Cpd 2 100, Atrazine 1680, S-Metolachlor 1870): 63% | DATST Obs (jimsonweed (DATST); 29 DAA, g a.i./ha: Cpd 2 150, S-Metolachlor 1870): 85% | DATST Obs (jimsonweed (DATST); [11]): 65% | DATST Obs (jimsonweed (DATST); [12]): 90% | DATST Obs (jimsonweed (DATST); [13]): 100% | SETFA Obs (giant foxtail (SETFA); [14]): 13% | SETFA Obs (giant foxtail (SETFA); [15]): 7% | SETFA Obs (giant foxtail (SETFA); [16]): 20% | ABUTH Obs (velvetleaf (ABUTH); [4]): 76% | ABUTH Obs (velvetleaf (ABUTH); [5]): 81% | ABUTH Obs (velvetleaf (ABUTH); [6]): 77% | ABUTH Obs (velvetleaf (ABUTH); [7]): 82% | IPOHE Obs [3, 14]: 13% | IPOHE Obs [3, 15]: 5% | IPOHE Obs [3, 16]: 20%

Source: patent US20100285959A1, “HERBICIDAL MIXTURES” (priority 2006, published 2010)
